Legend:
NTSR1 = NTSR1 (Homo sapiens, UniProt P30989); test: Confocal β-arrestin2 translocation assay in U2OS cells expressing NTSR1 and β-arrestin2-GFP; assay type: cell-based; design: expressed in transfected cells; also transient transfection; details: compared with NT
Protocol: Scale bar, […]. […] The ordinate axis in counts per minute (CPM) represents specifically bound ^125I-NT. In each experiment, the assays were conducted in quadruplicate, and data are expressed as the mean+SEM (n=4 separate experiments) and were analyzed using one-way ANOVA with Tukey's multiple comparison post hoc test. Curve fitting and statistical analyses were performed using GraphPad Prism V5.04.
The translocation of β-arrestin2 to the membrane by NTSR1 was assessed using a U2OS cell line permanently expressing the NTSR1 and green fluorescent protein (GFP) tagged-β-arrestin2, as described (Barak et al., 2016). Briefly, on day 1, stable cells were split into MGB101-1-2-LG glass-bottom 384-well plates (MatriCal, Spokane, WA, USA). Each well contained 30) mL aliquots of 8,000 cells in Minimum Eagle's medium (MEM) containing 10% fetal bovine serum (FBS) and 100 U/mL penicillin/streptomycin (Life Technologies, Grand Island, NY, USA). The plates were incubated overnight at 37°° C, in 5% CO2, and on the following day the media was changed to […] serum-and phenol red-free MEM. […] After treatment, plates were returned to the incubator for 40 min. […] Images were analyzed using a wavelet algorithm to measure formation of fluorescence aggregates (Evron et al., 2014). […] Analyzed image results were visually confirmed. […]

[1] = Central blood pressure (systolic ventricular pressure) in anesthetized mice; assay type: in vivo, C57BL/6J mice; details: 12 mg/kg, i.p.
Protocol: (§1) SBI-553 treatment was not associated with hypothermia or hypotension. In addition to modulating motivated behavior. […] SBI-553 (at 2-30 mg/kg, i.p.) had no effect on core body temperature (FIG. 6B). […] This was an effect not secondary to hypothermia as body temperature was maintained by thermal support. These findings indicate that a Gq protein-dependent mechanism mediates NTSR1-associated side effects and is not engaged by SBI-553. Consistent with an antagonist like action at NTSR1.

[2] = Core body temperature measurement; assay type: in vivo, C57BL/6J mice
Protocol: Core body temperatures were recorded from age-matched male and female C57BL/6J mice prior to treatment (Time 0) and 30 min, 60 min, 120 min, and 300 min post-treatment using a rectal probe thermometer for mice (Thermalert Model TH-8, Physitemp Instruments, Inc., Clifton, NJ). On three days of the week leading up to the study, animals were handled and temperatures were taken to acclimate the animals to the procedure.
as §1

[3] = mouse, in vivo; cited from earlier work
[4] = Paclitaxel (PTX)-induced mechanical allodynia, von Frey paw withdrawal threshold; details: i.t., 1 mg≈2 nmol as printed
[5] = global β-arrestin2 KO mice; cited from earlier work

NTSR1, sequence (P30989 whole entry): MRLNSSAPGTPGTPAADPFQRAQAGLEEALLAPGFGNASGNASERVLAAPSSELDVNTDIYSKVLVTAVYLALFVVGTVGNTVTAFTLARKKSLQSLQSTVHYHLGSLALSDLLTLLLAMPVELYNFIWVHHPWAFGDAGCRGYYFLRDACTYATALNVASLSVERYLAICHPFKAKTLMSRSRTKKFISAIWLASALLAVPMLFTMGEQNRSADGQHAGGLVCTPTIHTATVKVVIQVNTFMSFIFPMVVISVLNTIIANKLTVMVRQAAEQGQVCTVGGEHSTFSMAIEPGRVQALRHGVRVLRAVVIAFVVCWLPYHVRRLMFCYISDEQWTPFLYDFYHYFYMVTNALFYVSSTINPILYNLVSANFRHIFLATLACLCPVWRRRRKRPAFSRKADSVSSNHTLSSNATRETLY
NTSR1, sequence (P32121 whole entry partner): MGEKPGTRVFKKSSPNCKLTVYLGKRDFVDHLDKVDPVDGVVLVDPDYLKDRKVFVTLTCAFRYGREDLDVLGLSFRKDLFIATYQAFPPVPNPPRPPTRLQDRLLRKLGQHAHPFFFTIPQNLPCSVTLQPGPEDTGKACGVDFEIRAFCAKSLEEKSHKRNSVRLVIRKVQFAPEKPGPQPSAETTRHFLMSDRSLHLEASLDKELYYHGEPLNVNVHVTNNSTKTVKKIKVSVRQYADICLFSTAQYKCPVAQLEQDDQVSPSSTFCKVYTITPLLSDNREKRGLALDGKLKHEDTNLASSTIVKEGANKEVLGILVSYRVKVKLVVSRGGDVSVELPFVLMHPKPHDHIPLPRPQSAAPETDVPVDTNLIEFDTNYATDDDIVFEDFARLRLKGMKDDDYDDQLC

For `COc1ccccc1C1CCN(c2nc(C3(F)CC3)nc3ccc(N(C)CCO)cc23)CC1` [SBI-553], the “Intracellular translocation of β-arrestin” value (NTSR1) was “as effective as NT”, the “Hemodynamic parameters versus vehicle” value [1] was “no differences” and the Core body temperature ([2]; 2-30 mg/kg, i.p.) was “no effect”. For the same compound, the “Reversal of PD149163-associated decrease in body temperature” value ([2]; pretreatment p.o. 30 min prior to PD149163 (i.p.)) was “dose-dependently reversed”, the “Methamphetamine conditioned place preference” value [3] was “reduced” and the “Duration of reduction of mechanical allodynia” value [4] was greater than 24 h. The “PTX-induced mechanical allodynia (increased PWT) versus vehicle” value ([4]; four weeks after PTX) was “significant reduction of mechanical allodynia” and the “Significant reduction in locomotion” value [5] was “absent”.
